Assay results: patent US11241436B2, “Autophagy inducers for treatment of CNS conditions” (Northwestern University, priority 2017, dated 2022)

Tests used:
WT mice = assay: Analgesic tolerance test during chronic WIN treatment; type: in vivo, mouse; conditions: after 14 d of repeated WIN dosage (day 14)
Protocol: Briefly, mice were injected with WIN for 14 d, and analgesic tolerance was measured without WIN treatment on day 0, and after 1-h WIN treatment on day 1 and day 14.
There were no genotype differences either in basal pain sensitivity to infrared heat-generated pain (agonist-free, day 0) (FIG. 2C), or in analgesic effects of acute WIN treatment prior to chronic WIN administration (day 1) (FIG. 2D).

[1] = Body weight during chronic WIN treatment; type: in vivo, mouse; conditions: mice of all genotypes during chronic WIN treatment
Text: N=9-13 mice/group. Results represent mean±s.e.m.

CB1R signaling = CB1R signaling in brain (phosphorylation of MEK and JNK) after chronic WIN; type: in vivo, mouse; conditions: repeated WIN treatment 14 d
Protocol: WT mice were treated with either daily WIN or vehicle for 14 d, and then subject to an acute dosage of WIN 1 h prior to collection of brain samples.
To investigate whether restoration of CB1R signaling underlies the behavioral regulation by autophagy activation, the level and functionality of CB1R in mouse brain after co-administration of chronic cannabinoids and autophagy inducers were analyzed. […] To determine whether the increased level of CB1R represents CB1R re-sensitization in the brain, the agonist-induced phosphorylation of signaling kinases downstream of CB1R after chronic WIN exposure were analyzed.

Aβ42 = assay: Dot blot assay of Aβ42 in brain of 5XFAD mice; type: in vivo, mouse; conditions: 5XFAD Becn1 F121A mice, 2 mg/kg i.p. once per day for 7 days
Protocol: Total protein loading was labeled by Ponceau S. N=5. **, P<0.01, t test.
Total protein loading was labeled by Ponceau S. Triplicate experiments from 4-5 mice in each group were shown. Results represent mean±s.e.m. NS, not significant; *, P<0.05; **, P<0.01; ***, P<0.001, t test.
Total protein loading was labeled by Ponceau S. Triplicate experiments from 4 mice in each group were shown.
Dot blot assay. Snap frozen hemi-brain were homogenized in 800 μl phosphate-buffered saline (PBS; Sigma-Aldrich, D8537) with 1% Triton X-100 supplemented with halt proteinase inhibitor cocktail (ThermoFisher Scientific), and halt phosphatase inhibitor cocktail (ThermoFisher Scientific). Protein concentration was quantified using BCA Assay (Pierce). For Af342 dot blots, 10 mg/ml brain homogenates were extracted in guanidine buffer (5 M guanidine-HCl [GuHCl], 50 mM Tris HCl pH 8.0) overnight at room temperature. One μl of sample was spotted in triplicate on 0.2 μm nitrocellulose membrane, and dried for 1 h at 37° C. The membrane was stained with Ponceau S, and the dot blot signal on the membrane was detected by immunostaining with Aβ42 antibody (Invitrogen, 700254, 1:1000) and HRP-conjugated secondary antibody (Santa Cruz Biotechnology, sc2004, 1:2000). Aβ42 signals were normalized to the Ponceau S staining. To separate soluble and insoluble Aβ fractions, 10 mg/ml of the total homogenated brains were centrifuged at 14000 rpm, 4° C. for 30 min. The supernatant (soluble fraction) was used directly for dot blot assays. The pellet (insoluble fraction) was extracted in guanidine buffer overnight at room temperature, and used in dot blot analyses. […] One μl of each sample was spotted on nitrocellulose membrane for dot blot analysis.

LC3 = assay: Promega Autophagy Assay System (HiBiT-tagged LC3 reporter, autophagy flux); type: cell-based; conditions: LC3 reporter signal; decrease = increased autophagy
Text: The Promega Augophagy Assay System uses LC3 to monitor the autophagy process. […] LgBiT is a […] recombinant protein derived from NanoLuc. When HiBiT associates with LgBiT, a strong luciferase activity is reconstituted. An increase in autophagy will accelerate the degradation of LC3 reporter which decreases the assay signal. In contrast, inhibition of autophagy causes the accumulation of LC3 which will increase the reporter levels and assay signal.

| SMILES | AC50 (LC3) [µM] | further results |
| --- | --- | --- |
| Cc1c(C(=O)c2cccc3ccccc23)c2cccc3c2n1[C@H](CN1CCOCC1)CO3 [WIN, reference compound] | – | analgesic effect of WIN (WT mice): markedly decreased; body weight [1]: remained constant; activation of CB1R (CNR1) signaling induced by agonists (CB1R signaling): decreased activation |
| CNC(=O)c1ccccc1Oc1nc(Nc2cc(OC)c(OC)c(OC)c2)ncc1Br [SBI-0206965, reference compound] | – | Becn1 F121A-induced reduction in brain Aβ42 levels (Aβ42): abolished the reduction |
| N=c1c2c(-c3ccccc3)cn(Cc3ccccc3)c2ncn1[C@H](CO)Cc1ccccc1 | 25.9 | – |
| Cc1c(C)n(Cc2ccccc2)c2ncn(C3CCOCC3)c(=N)c12 | 23.1 | – |
| N=c1c2c(-c3ccccc3)c(-c3ccccc3)n(Cc3ccccc3)c2ncn1Cc1ccc2c(c1)OCO2 | 16.4 | – |
| N=c1c2c(-c3ccccc3)c(-c3ccccc3)n(CCc3ccccc3)c2ncn1[C@@H]1CCCC[C@H]1O | 7.31 | – |
| N=c1c2c(-c3ccccc3)c(-c3ccccc3)n(CC3CC3)c2ncn1CCCO | 10.3 | – |
| COc1ccc(Cn2c(-c3ccccc3)c(-c3ccccc3)c3c(=N)n(CCCCCO)cnc32)cc1 | 5.17 | – |
